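96-well plates; 48 h exposure; 5 concentrations. Endpoints by linear interpolation between flanking doses. Not reached: highest tested concentration assigned. Abbreviation: GI50, concentration required for 50% inhibition of growth. At the TGI there is no net growth.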
Key:
Experiment in all cases: NCI-60 cell line screen, 48 h
786-0 renal = system: 786-0 renal
A498 renal = system: A498 renal
A549 NSCLC = system: A549 NSCLC
ACHN renal = system: ACHN renal
BT-549 breast = system: BT-549 breast
CAKI-1 renal = system: CAKI-1 renal
CCRF-CEM leukemia = system: CCRF-CEM leukemia
COLO 205 colon = system: COLO 205 colon
DU-145 prostate = system: DU-145 prostate
EKVX NSCLC = system: EKVX NSCLC
HCC-2998 colon = system: HCC-2998 colon
HCT-116 colon = system: HCT-116 colon
HCT-15 colon = system: HCT-15 colon
HL-60(TB) leukemia = system: HL-60(TB) leukemia
HOP-62 NSCLC = system: HOP-62 NSCLC
HOP-92 NSCLC = system: HOP-92 NSCLC
HS 578T breast = system: HS 578T breast
HT29 colon = system: HT29 colon
IGROV1 ovarian = system: IGROV1 ovarian
K-562 leukemia = system: K-562 leukemia
KM12 colon = system: KM12 colon
LOX IMVI melanoma = system: LOX IMVI melanoma
M14 melanoma = system: M14 melanoma
MALME-3M melanoma = system: MALME-3M melanoma
MCF7 breast = system: MCF7 breast
MDA-MB-231 breast = system: MDA-MB-231 breast
MDA-MB-435 = system: MDA-MB-435
MOLT-4 leukemia = system: MOLT-4 leukemia
NCI-H226 lung = system: NCI-H226 lung
NCI-H23 lung = system: NCI-H23 lung
NCI-H460 lung = system: NCI-H460 lung
NCI-H522 lung = system: NCI-H522 lung
NCI/ADR-RES ovarian = system: NCI/ADR-RES ovarian
OVCAR-3 ovarian = system: OVCAR-3 ovarian
OVCAR-4 ovarian = system: OVCAR-4 ovarian
OVCAR-5 ovarian = system: OVCAR-5 ovarian
OVCAR-8 ovarian = system: OVCAR-8 ovarian
PC-3 prostate = system: PC-3 prostate
RPMI-8226 leukemia = system: RPMI-8226 leukemia
RXF 393 renal = system: RXF 393 renal
SF-268 CNS = system: SF-268 CNS
SF-295 CNS = system: SF-295 CNS
SF-539 CNS = system: SF-539 CNS
SK-MEL-2 melanoma = system: SK-MEL-2 melanoma
SK-MEL-28 melanoma = system: SK-MEL-28 melanoma
SK-MEL-5 melanoma = system: SK-MEL-5 melanoma
SK-OV-3 ovarian = system: SK-OV-3 ovarian
SN12C renal = system: SN12C renal
SNB-19 CNS = system: SNB-19 CNS
SNB-75 CNS = system: SNB-75 CNS
SR leukemia = system: SR leukemia
SW-620 colon = system: SW-620 colon
T-47D breast = system: T-47D breast
TK-10 renal = system: TK-10 renal
U251 CNS = system: U251 CNS
UACC-257 melanoma = system: UACC-257 melanoma
UACC-62 melanoma = system: UACC-62 melanoma
UO-31 renal = system: UO-31 renal

## COc1ccc(/C(=N\NC(N)=S)c2ccc(Cl)cc2)cc1OC
786-0 renal
  GI50: 7.54 µM
  TGI: 23.1 µM
A498 renal
  GI50: 5.93 µM
  TGI: 13.4 µM
A549 NSCLC
  GI50: 5.94 µM
  TGI: 32.3 µM
ACHN renal
  GI50: 5.89 µM
  TGI: 29.2 µM
BT-549 breast
  GI50: 2.4 µM
  TGI: 6.33 µM
CAKI-1 renal
  GI50: 3.28 µM
  TGI: 17.1 µM
CCRF-CEM leukemia
  GI50: 2.63 µM
  TGI: 16.6 µM
COLO 205 colon
  GI50: 3.37 µM
  TGI: 10.8 µM
DU-145 prostate
  GI50: 5.95 µM
  TGI: 22.5 µM
EKVX NSCLC
  GI50: 4.95 µM
  TGI: 28.3 µM
HCC-2998 colon
  GI50: 4.36 µM
  TGI: 16.5 µM
HCT-116 colon
  GI50: 3.59 µM
  TGI: 15.6 µM
HCT-15 colon
  GI50: 2.06 µM
  TGI: 15.6 µM
HL-60(TB) leukemia
  GI50: 1.77 µM
  TGI: 8.05 µM
HOP-62 NSCLC
  GI50: 4.38 µM
  TGI: 20.8 µM
HOP-92 NSCLC
  GI50: 4.67 µM
  TGI: 17.4 µM
HS 578T breast
  GI50: 2.77 µM
  TGI: 13.8 µM
HT29 colon
  GI50: 2.69 µM
  TGI: 9.48 µM
IGROV1 ovarian
  GI50: 4.11 µM
  TGI: 20.4 µM
K-562 leukemia
  GI50: 1.04 µM
  TGI: > 41.1 µM
KM12 colon
  GI50: 3.56 µM
  TGI: 19.4 µM
LOX IMVI melanoma
  GI50: 4.41 µM
  TGI: 18.2 µM
M14 melanoma
  GI50: 2.93 µM
  TGI: 15.2 µM
MALME-3M melanoma
  GI50: 3.54 µM
  TGI: 19.2 µM
MCF7 breast
  GI50: 3.12 µM
  TGI: 15.5 µM
MDA-MB-231 breast
  GI50: 4.48 µM
  TGI: 18.2 µM
MDA-MB-435
  GI50: 0.638 µM
  TGI: 2.84 µM
MOLT-4 leukemia
  GI50: 4.91 µM
  TGI: 29.2 µM
NCI-H226 lung
  GI50: 2.72 µM
  TGI: 17.6 µM
NCI-H23 lung
  GI50: 4.7 µM
  TGI: 18.2 µM
NCI-H460 lung
  GI50: 3.58 µM
  TGI: 13 µM
NCI-H522 lung
  GI50: 1.37 µM
  TGI: 4.62 µM
NCI/ADR-RES ovarian
  GI50: 2.34 µM
  TGI: 9.89 µM
OVCAR-3 ovarian
  GI50: 3.47 µM
  TGI: 14.9 µM
OVCAR-4 ovarian
  GI50: 7.01 µM
  TGI: 40.7 µM
OVCAR-5 ovarian
  GI50: 5.44 µM
  TGI: 21.3 µM
OVCAR-8 ovarian
  GI50: 4.41 µM
  TGI: 20.5 µM
PC-3 prostate
  GI50: 3.76 µM
  TGI: 20.1 µM
RPMI-8226 leukemia
  GI50: 3.4 µM
  TGI: 16.4 µM
RXF 393 renal
  GI50: 1.94 µM
  TGI: 7.26 µM
SF-268 CNS
  GI50: 8.87 µM
  TGI: 30.3 µM
SF-295 CNS
  GI50: 3.56 µM
  TGI: 14.2 µM
SF-539 CNS
  GI50: 2.63 µM
  TGI: 9.11 µM
SK-MEL-2 melanoma
  GI50: 1.67 µM
  TGI: 4.67 µM
SK-MEL-28 melanoma
  GI50: 6.95 µM
  TGI: 21.7 µM
SK-MEL-5 melanoma
  GI50: 4.14 µM
  TGI: 14 µM
SK-OV-3 ovarian
  GI50: 3.38 µM
  TGI: 16.1 µM
SN12C renal
  GI50: 4.63 µM
  TGI: 18.5 µM
SNB-19 CNS
  GI50: 5.22 µM
  TGI: 21.5 µM
SNB-75 CNS
  GI50: 1.69 µM
  TGI: 6.73 µM
SR leukemia
  GI50: 2.43 µM
  TGI: > 39.7 µM
SW-620 colon
  GI50: 3.65 µM
  TGI: 17.5 µM
T-47D breast
  GI50: 3.16 µM
  TGI: 25 µM
TK-10 renal
  GI50: 11.1 µM
  TGI: 31.6 µM
U251 CNS
  GI50: 3.71 µM
  TGI: 15.4 µM
UACC-257 melanoma
  GI50: 8.13 µM
  TGI: 26.2 µM
UACC-62 melanoma
  GI50: 3.7 µM
  TGI: 19.6 µM
UO-31 renal
  GI50: 3.34 µM
  TGI: 16.6 µM

## CCCC(=O)NC(c1cccnc1)c1cc(C(C)(C)C)c2cccnc2c1O (stereo not given)
786-0 renal
  GI50: 4.61 µM
  TGI: > 100 µM
A498 renal
  GI50: > 100 µM
  TGI: > 100 µM
A549 NSCLC
  GI50: 5.68 µM
  TGI: > 100 µM
ACHN renal
  GI50: 3.62 µM
  TGI: > 100 µM
BT-549 breast
  GI50: 5.06 µM
  TGI: > 100 µM
CAKI-1 renal
  GI50: 3.19 µM
  TGI: > 100 µM
CCRF-CEM leukemia
  GI50: 2.63 µM
  TGI: > 100 µM
COLO 205 colon
  GI50: 3.25 µM
  TGI: > 100 µM
DU-145 prostate
  GI50: 11.3 µM
  TGI: > 100 µM
EKVX NSCLC
  GI50: 5.19 µM
  TGI: > 100 µM
HCC-2998 colon
  GI50: 7.41 µM
  TGI: > 100 µM
HCT-116 colon
  GI50: 3.74 µM
  TGI: > 100 µM
HCT-15 colon
  GI50: 3.24 µM
  TGI: > 100 µM
HL-60(TB) leukemia
  GI50: 2.86 µM
  TGI: 21.1 µM
HOP-62 NSCLC
  GI50: 4.15 µM
  TGI: > 100 µM
HOP-92 NSCLC
  GI50: 1.53 µM
  TGI: 16.2 µM
HS 578T breast
  GI50: 7.31 µM
  TGI: > 100 µM
HT29 colon
  GI50: 4.32 µM
  TGI: > 100 µM
IGROV1 ovarian
  GI50: 3.7 µM
  TGI: > 100 µM
K-562 leukemia
  GI50: 3.45 µM
  TGI: > 100 µM
KM12 colon
  GI50: 6.8 µM
  TGI: > 100 µM
LOX IMVI melanoma
  GI50: 3.78 µM
  TGI: > 100 µM
M14 melanoma
  GI50: 3.91 µM
  TGI: 44 µM
MALME-3M melanoma
  GI50: 10.6 µM
  TGI: > 100 µM
MCF7 breast
  GI50: 2.97 µM
  TGI: > 100 µM
MDA-MB-231 breast
  GI50: 6.3 µM
  TGI: > 100 µM
MDA-MB-435
  GI50: 6.94 µM
  TGI: > 100 µM
MOLT-4 leukemia
  GI50: 3.53 µM
  TGI: > 100 µM
NCI-H226 lung
  GI50: 3.75 µM
  TGI: 83.1 µM
NCI-H460 lung
  GI50: 3.89 µM
  TGI: > 100 µM
NCI-H522 lung
  GI50: 2.78 µM
  TGI: 20.4 µM
NCI/ADR-RES ovarian
  GI50: 2.54 µM
  TGI: > 100 µM
OVCAR-3 ovarian
  GI50: 3.98 µM
  TGI: > 100 µM
OVCAR-4 ovarian
  GI50: 3.82 µM
  TGI: > 100 µM
OVCAR-5 ovarian
  GI50: 6.96 µM
  TGI: > 100 µM
OVCAR-8 ovarian
  GI50: 4 µM
  TGI: > 100 µM
PC-3 prostate
  GI50: 4.39 µM
  TGI: > 100 µM
RPMI-8226 leukemia
  GI50: 4.35 µM
  TGI: > 100 µM
RXF 393 renal
  GI50: 4.31 µM
  TGI: > 100 µM
SF-268 CNS
  GI50: 5.11 µM
  TGI: > 100 µM
SF-295 CNS
  GI50: 4.24 µM
  TGI: > 100 µM
SF-539 CNS
  GI50: 4.37 µM
  TGI: > 100 µM
SK-MEL-2 melanoma
  GI50: 6.7 µM
  TGI: > 100 µM
SK-MEL-28 melanoma
  GI50: 4.86 µM
  TGI: > 100 µM
SK-MEL-5 melanoma
  GI50: 13.7 µM
  TGI: 48.4 µM
SK-OV-3 ovarian
  GI50: 3.46 µM
  TGI: 71.7 µM
SN12C renal
  GI50: 7.13 µM
  TGI: > 100 µM
SNB-19 CNS
  GI50: 8.15 µM
  TGI: > 100 µM
SNB-75 CNS
  GI50: 2.51 µM
  TGI: 16.4 µM
SR leukemia
  GI50: 3.69 µM
  TGI: > 100 µM
SW-620 colon
  GI50: 6.07 µM
  TGI: > 100 µM
T-47D breast
  GI50: 3.59 µM
  TGI: > 100 µM
TK-10 renal
  GI50: 5.48 µM
  TGI: > 100 µM
U251 CNS
  GI50: 4.12 µM
  TGI: > 100 µM
UACC-257 melanoma
  GI50: 3.82 µM
  TGI: 66.4 µM
UACC-62 melanoma
  GI50: 3.24 µM
  TGI: 19.6 µM
UO-31 renal
  GI50: 2.22 µM
  TGI: > 100 µM
